Source: patent US10501461B2, “Tyrosine amide derivatives as Rho-kinase inhibitors” (CHIESI FARMACEUTICI S.P.A., priority 2017, dated 2019)

Legend:
[1] = target: Rho kinase 1 (ROCK-I) (Homo sapiens, UniProt Q13464); assay: In vitro Rho kinase inhibitory activity assay (ADP-Glo), Rho kinase 1; assay type: biochemical; conditions: 10 μM ATP, 25° C., expressed as range of activity
Experimental: (§1) The effectiveness of compounds of the present invention to inhibit Rho kinase activity can be determined in a 10 μl assay containing 40 mM Tris pH7.5, 20 mM MgCl2 0.1 mg/ml BSA, 50 μM DTT and 2.5 μM peptide substrate (Myelin Basic Protein) using an ADP-Glo kit (Promega). Compounds were dissolved in DMSO such that the final concentration of DMSO was 1% in the assay. All reactions/incubations are performed at 25° C. Compound (2 ul) and either Rho kinase 1 or 2 (4 μl) were mixed and incubated for 30 mins. Reactions were initiated by addition of ATP (4 μl) such that the final concentration of ATP in the assay was 10 μM. After a 1 hour incubation 10 μl of ADP-Glo Reagent was added and after a further 45 minute incubation 20 ul of Kinase Detection Buffer was added and the mixture incubated for a further 30 minutes. The luminescent signal was measured on a luminometer. […] Compounds were tested in dose-response format and the inhibition of kinase activity was calculated at each concentration of compound. To determine the IC50 (concentration of compound required to inhibit 50% of the enzyme activity) data were fit to a plot of % inhibition vs Log10 compound concentration using a sigmoidal fit with a variable slope and fixing the maximum to 100% and the minimum to 0%. To determine the Ki values the Cheng-Prusoff equation was utilized (Ki=IC50/(1+[S]/Km).

[2] = target: Rho kinase 2 (ROCK-II) (Homo sapiens, UniProt O75116); assay: In vitro Rho kinase inhibitory activity assay (ADP-Glo), Rho kinase 2; assay type: biochemical; conditions: 10 μM ATP, 25° C., expressed as range of activity
Experimental: as §1

Rho kinase 1 (ROCK-I), sequence (Q13464 whole entry): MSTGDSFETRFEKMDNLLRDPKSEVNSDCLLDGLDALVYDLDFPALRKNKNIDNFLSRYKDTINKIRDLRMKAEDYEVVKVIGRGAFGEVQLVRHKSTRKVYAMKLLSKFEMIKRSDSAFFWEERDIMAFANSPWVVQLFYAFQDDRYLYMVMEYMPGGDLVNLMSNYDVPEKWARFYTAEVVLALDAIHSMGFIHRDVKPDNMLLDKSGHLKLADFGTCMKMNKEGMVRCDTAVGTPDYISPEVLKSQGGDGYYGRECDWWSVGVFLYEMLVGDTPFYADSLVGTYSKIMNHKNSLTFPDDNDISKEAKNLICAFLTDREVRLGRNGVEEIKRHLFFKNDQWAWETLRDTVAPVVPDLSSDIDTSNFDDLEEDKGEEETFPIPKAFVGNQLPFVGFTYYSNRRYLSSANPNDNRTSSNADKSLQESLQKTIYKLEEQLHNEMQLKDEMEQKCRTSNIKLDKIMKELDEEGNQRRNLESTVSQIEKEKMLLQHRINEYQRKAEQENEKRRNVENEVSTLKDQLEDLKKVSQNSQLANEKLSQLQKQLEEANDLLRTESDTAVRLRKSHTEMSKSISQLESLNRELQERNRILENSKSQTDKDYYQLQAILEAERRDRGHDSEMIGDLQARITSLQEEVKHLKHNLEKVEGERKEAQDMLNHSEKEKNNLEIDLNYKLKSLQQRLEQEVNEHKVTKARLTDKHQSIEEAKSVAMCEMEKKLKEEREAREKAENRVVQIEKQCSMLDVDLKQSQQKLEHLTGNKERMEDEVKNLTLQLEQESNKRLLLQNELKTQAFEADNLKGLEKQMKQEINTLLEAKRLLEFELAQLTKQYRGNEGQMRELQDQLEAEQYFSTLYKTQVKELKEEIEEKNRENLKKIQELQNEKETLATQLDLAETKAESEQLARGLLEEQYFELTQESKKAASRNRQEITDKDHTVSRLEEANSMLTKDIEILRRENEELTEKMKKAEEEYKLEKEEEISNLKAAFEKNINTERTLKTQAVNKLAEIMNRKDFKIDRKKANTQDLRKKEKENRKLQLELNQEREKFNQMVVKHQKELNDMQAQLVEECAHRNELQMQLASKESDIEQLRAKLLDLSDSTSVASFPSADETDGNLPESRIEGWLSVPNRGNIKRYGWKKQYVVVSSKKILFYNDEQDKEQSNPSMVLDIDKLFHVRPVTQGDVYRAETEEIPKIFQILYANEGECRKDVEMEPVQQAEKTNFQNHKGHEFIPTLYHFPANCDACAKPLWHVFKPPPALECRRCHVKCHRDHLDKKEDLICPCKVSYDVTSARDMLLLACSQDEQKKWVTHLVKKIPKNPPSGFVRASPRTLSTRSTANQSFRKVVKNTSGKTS
Rho kinase 2 (ROCK-II), sequence (O75116 whole entry): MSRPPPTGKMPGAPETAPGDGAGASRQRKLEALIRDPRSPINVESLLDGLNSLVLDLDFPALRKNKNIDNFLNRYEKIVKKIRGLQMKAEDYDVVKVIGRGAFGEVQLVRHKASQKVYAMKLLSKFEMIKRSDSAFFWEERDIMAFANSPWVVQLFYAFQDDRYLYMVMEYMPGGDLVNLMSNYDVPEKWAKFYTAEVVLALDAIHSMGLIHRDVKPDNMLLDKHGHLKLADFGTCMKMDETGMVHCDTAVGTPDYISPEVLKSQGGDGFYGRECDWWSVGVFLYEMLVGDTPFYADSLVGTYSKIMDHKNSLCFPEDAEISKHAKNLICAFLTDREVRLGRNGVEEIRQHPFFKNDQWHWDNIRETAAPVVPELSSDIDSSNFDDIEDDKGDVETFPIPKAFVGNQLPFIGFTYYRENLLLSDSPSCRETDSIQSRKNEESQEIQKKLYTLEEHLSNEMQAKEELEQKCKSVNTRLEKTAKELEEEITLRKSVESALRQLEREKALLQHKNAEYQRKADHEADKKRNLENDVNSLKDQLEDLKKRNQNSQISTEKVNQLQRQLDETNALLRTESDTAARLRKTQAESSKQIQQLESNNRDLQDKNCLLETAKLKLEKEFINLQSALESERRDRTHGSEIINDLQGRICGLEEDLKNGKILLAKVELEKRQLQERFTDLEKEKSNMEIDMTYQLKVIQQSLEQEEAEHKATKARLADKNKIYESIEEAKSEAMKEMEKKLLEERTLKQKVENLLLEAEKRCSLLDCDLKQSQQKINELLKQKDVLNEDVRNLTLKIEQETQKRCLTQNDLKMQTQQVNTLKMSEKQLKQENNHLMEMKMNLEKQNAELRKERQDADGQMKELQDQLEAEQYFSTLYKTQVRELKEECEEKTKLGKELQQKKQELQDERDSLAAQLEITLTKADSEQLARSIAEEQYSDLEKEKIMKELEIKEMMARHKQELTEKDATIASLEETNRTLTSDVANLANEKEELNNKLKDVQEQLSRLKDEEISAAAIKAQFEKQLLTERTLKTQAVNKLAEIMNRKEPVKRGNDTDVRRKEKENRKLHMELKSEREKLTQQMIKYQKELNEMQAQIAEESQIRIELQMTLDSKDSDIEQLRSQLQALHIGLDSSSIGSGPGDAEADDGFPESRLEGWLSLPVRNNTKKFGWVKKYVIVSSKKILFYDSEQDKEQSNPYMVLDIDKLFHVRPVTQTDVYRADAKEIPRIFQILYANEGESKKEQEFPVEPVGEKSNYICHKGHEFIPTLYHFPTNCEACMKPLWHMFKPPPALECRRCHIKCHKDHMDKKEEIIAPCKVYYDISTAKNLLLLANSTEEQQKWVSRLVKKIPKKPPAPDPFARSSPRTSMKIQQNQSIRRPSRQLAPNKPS

Row | Ki [1] | Ki [2] | SMILES
1 | < 3 nM | < 3 nM | N#Cc1c[nH]c2nccc(Oc3ccc(C[C@H](N)C(=O)N4CCN(Cc5ccccc5)CC4)cc3F)c12 [Example 220, (S)-4-(4-(2-amino-3-(4-benzylpiperazin-1-yl)-3-oxopropyl)-2-fluorophenoxy)-1H-pyrrolo[2,3-b]pyridine-3-carbonitrile]
2 | 3 to 30 nM | 3 to 30 nM | CCn1nccc1-c1c[nH]c2nccc(Oc3ccc(C[C@H](N)C(=O)N4CCN(Cc5ccccc5)CC4)cc3)c12 [Example 193, (S)-2-amino-1-(4-benzylpiperazin-1-yl)-3-(4-((3-(1-ethyl-1H-pyrazol-5-yl)-1H-pyrrolo[2,3-b]pyridin-4-yl)oxy)phenyl)propan-1-one]
3 | < 3 nM | < 3 nM | Cc1c[nH]c2nccc(Oc3ccc(C[C@H](N)C(=O)N4CCN(C(=O)c5ccc(CN(C)C)cc5)CC4)cc3F)c12 [Example 172, (S)-2-amino-1-(4-(4-((dimethylamino)methyl)benzoyl)piperazin-1-yl)-3-(3-fluoro-4-((3-methyl-1H-pyrrolo[2,3-b]pyridin-4-yl)oxy)phenyl)propan-1-one]
4 | < 3 nM | < 3 nM | N[C@@H](Cc1ccc(Oc2ccnc3[nH]cc(CCO)c23)cc1)C(=O)N1CCN(Cc2ccccc2)CC1 [Example 216, (S)-2-amino-1-(4-benzylpiperazin-1-yl)-3-(4-((3-(2-hydroxyethyl)-1H-pyrrolo[2,3-b]pyridin-4-yl)oxy)phenyl)propan-1-one]
5 | < 3 nM | < 3 nM | Cc1c[nH]c2nccc(Oc3ccc(C[C@H](N)C(=O)N4CCN(C(=O)c5cnn(C)c5)CC4)cc3F)c12 [Example 175, (S)-2-amino-3-(3-fluoro-4-((3-methyl-1H-pyrrolo[2,3-b]pyridin-4-yl)oxy)phenyl)-1-(4-(1-methyl-1H-pyrazole-4-carbonyl)piperazin-1-yl)propan-1-one]
6 | 3 to 30 nM | 3 to 30 nM | CN(C)CCCNC(=O)[C@@H](N)Cc1ccc(Oc2ccnc3[nH]cc(CO)c23)c(F)c1 [Example 212, (S)-2-amino-N-(3-(dimethylamino)-propyl)-3-(3-fluoro-4-((3-(hydroxymethyl)-1H-pyrrolo[2,3-b]pyridin-4-yl)oxy)phenyl)propanamide]
7 | < 3 nM | < 3 nM | N[C@@H](Cc1ccc(Oc2ccnc3[nH]cc(Br)c23)c(F)c1)C(=O)N1CCN(Cc2ccccc2)CC1 [Example 187, (S)-2-amino-1-(4-benzylpiperazin-1-yl)-3-(4-((3-bromo-1H-pyrrolo[2,3-b]pyridin-4-yl)oxy)-3-fluorophenyl)propan-1-one]
8 | 3 to 30 nM | 3 to 30 nM | CN1CCC(NC(=O)[C@@H](N)Cc2ccc(Oc3ccnc4[nH]cc(CO)c34)c(F)c2)CC1 [Example 210, (S)-2-amino-3-(3-fluoro-4-((3-(hydroxymethyl)-1H-pyrrolo[2,3-b]pyridin-4-yl)oxy)phenyl)-N-(1-methylpiperidin-4-yl)propanamide]
9 | < 3 nM | < 3 nM | Cc1c[nH]c2nccc(Oc3ccc(C[C@H](N)C(=O)N4CCN(C(=O)c5nccs5)CC4)cc3F)c12 [Example 177, (S)-2-amino-3-(3-fluoro-4-((3-methyl-1H-pyrrolo[2,3-b]pyridin-4-yl)oxy)phenyl)-1-(4-(thiazole-2-carbonyl)piperazin-1-yl)propan-1-one]
10 | < 3 nM | < 3 nM | Cc1c[nH]c2nccc(Oc3ccc(C[C@H](N)C(=O)N4CCN(C(=O)Cc5ccccc5)CC4)cc3F)c12 [Example 169, (S)-2-amino-3-(3-fluoro-4-((3-methyl-1H-pyrrolo[2,3-b]pyridin-4-yl)oxy)phenyl)-1-(4-(2-phenylacetyl-)piperazin-1-yl)propan-1-one]

Continued, compound first:

Row | SMILES | Ki [1] | Ki [2]
11 | Cc1c[nH]c2nccc(Oc3ccc(C[C@H](N)C(=O)NC4(C(N)=O)CCCCC4)cc3F)c12 [Example 35, (S)-1-(2-amino-3-(3-fluoro-4-((3-methyl-1H-pyrrolo[2,3-b]pyridin-4-yl)oxy)phenyl)propanamido)cyclohexanecarboxamide] | < 3 nM | < 3 nM
12 | Cc1c[nH]c2nccc(Oc3ccc(CC(N)C(=O)N4CCN(Cc5ccc6c(c5)OCO6)CC4)cc3F)c12 (stereo not shown) [Example 52, 2-amino-1-(4-(benzo[d][1,3]dioxol-5-ylmethyl)piperazin-1-yl)-3-(3-fluoro-4-((3-methyl-1H-pyrrolo[2,3-b]pyridin-4-yl)oxy)phenyl)propan-1-one] | < 3 nM | < 3 nM
13 | Cc1c[nH]c2nccc(Oc3ccc(CC(N)C(=O)NCCc4ccncc4)cc3F)c12 (stereo not shown) [Example 57, 2-amino-3-(3-fluoro-4-((3-methyl-1H-pyrrolo[2,3-b]pyridin-4-yl)oxy)phenyl)-N-(2-(pyridin-4-yl)ethyl)propanamide] | < 3 nM | < 3 nM
14 | Cc1c[nH]c2nccc(Oc3ccc(C[C@H](N)C(=O)N4CCC(CN(C)C)CC4)cc3F)c12 [Example 45, (S)-2-amino-1-(4-((dimethylamino)methyl)piperidin-1-yl)-3-(3-fluoro-4-((3-methyl-1H-pyrrolo[2,3-b]pyridin-4-yl)oxy)phenyl)propan-1-one] | < 3 nM | < 3 nM
15 | Cc1c[nH]c2ncnc(Oc3ccc(C[C@H](N)C(=O)N4C[C@@H](C)N(C)[C@@H](C)C4)cc3F)c12 [Example 129, (S)-2-amino-3-(3-fluoro-4-((5-methyl-7H-pyrrolo[2,3-d]pyrimidin-4-yl)oxy)phenyl)-1-((3S,5R)-3,4,5-trimethylpiperazin-1-yl)propan-1-one] | < 3 nM | < 3 nM
16 | N[C@@H](Cc1ccc(Oc2ccnc3[nH]cc(F)c23)cc1)C(=O)N1CCN(Cc2ccccc2)CC1 [Example 114, (S)-2-amino-1-(4-benzylpiperazin-1-yl)-3-(4-((3-fluoro-1H-pyrrolo[2,3-b]pyridin-4-yl)oxy)phenyl)propan-1-one] | < 3 nM | < 3 nM
17 | Cc1c[nH]c2nccc(Oc3ccc(C[C@H](N)C(=O)N4CCC(Oc5cccnc5)CC4)cc3F)c12 [Example 11, (S)-2-amino-3-(3-fluoro-4-((3-methyl-1H-pyrrolo[2,3-b]pyridin-4-yl)oxy)phenyl)-1-(4-(pyridin-3-yloxy)piperidin-1-yl)propan-1-one] | < 3 nM | < 3 nM
18 | Cc1c[nH]c2nccc(Oc3ccc(C[C@H](N)C(=O)N(C)C4CCCCC4)cc3)c12 [Example 134, (S)-2-amino-N-cyclohexyl-N-methyl-3-(4-((3-methyl-1H-pyrrolo[2,3-b]pyridin-4-yl)oxy)phenyl)propanamide] | < 3 nM | < 3 nM
19 | COCCCNC(=O)C(N)Cc1ccc(Oc2ccnc3[nH]cc(C)c23)c(F)c1 (stereo not shown) [Example 68, 2-amino-3-(3-fluoro-4-((3-methyl-1H-pyrrolo[2,3-b]pyridin-4-yl)oxy)phenyl)-N-(3-methoxypropyl)propanamide] | < 3 nM | < 3 nM
20 | Cc1c[nH]c2nccc(Oc3ccc(C[C@H](N)C(=O)NC4(C#N)CCCCC4)cc3F)c12 [Example 34, (S)-2-amino-N-(1-cyanocyclohexyl)-3-(3-fluoro-4-((3-methyl-1H-pyrrolo[2,3-b]pyridin-4-yl)oxy)phenyl)propanamide] | < 3 nM | < 3 nM
21 | Cc1c[nH]c2ncnc(Oc3ccc(C[C@H](N)C(=O)N4C[C@@H]5C[C@H]4CN5C)cc3F)c12 [Example 121, 2-amino-3-(3-fluoro-4-((5-methyl-7H-pyrrolo[2,3-d]pyrimidin-4-yl)oxy)phenyl)-1-((1S,4S)-5-methyl-2,5-diazabicyclo[2.2.1]heptan-2-yl)propan-1-one] | 3 to 30 nM | 3 to 30 nM
22 | Cc1noc(C2CCN(C(=O)[C@@H](N)Cc3ccc(Oc4ccnc5[nH]cc(C)c45)c(F)c3)C2)n1 (single isomer, unassigned) [Example 8B] | < 3 nM | < 3 nM
23 | CC(=O)N1CCN(C(=O)C(N)Cc2ccc(Oc3ccnc4[nH]cc(C)c34)c(F)c2)CC1 (stereo not shown) [Example 133, 1-(4-acetylpiperazin-1-yl)-2-amino-3-(3-fluoro-4-((3-methyl-1H-pyrrolo[2,3-b]pyridin-4-yl)oxy)phenyl)propan-1-one] | < 3 nM | < 3 nM
24 | Cc1c[nH]c2ncnc(Oc3ccc(C[C@H](N)C(=O)N4CCN(C)CC4)cc3F)c12 [Example 118, (S)-2-amino-3-(3-fluoro-4-((5-methyl-7H-pyrrolo[2,3-d]pyrimidin-4-yl)oxy)phenyl)-1-(4-methylpiperazin-1-yl)propan-1-one] | 3 to 30 nM | 3 to 30 nM
25 | Cc1c[nH]c2nccc(Oc3ccc(C[C@H](N)C(=O)N4C[C@H]5CNC[C@H]5C4)cc3F)c12 [Example 31, (S)-2-amino-3-(3-fluoro-4-((3-methyl-1H-pyrrolo[2,3-b]pyridin-4-yl)oxy)phenyl)-1-((3aR,6aS)-hexahydropyrrolo[3,4-c]pyrrol-2(1H)-yl)propan-1-one] | < 3 nM | < 3 nM
26 | Cc1c[nH]c2nccc(Oc3ccc(C[C@H](N)C(=O)N4CC[C@@H](N(C)C)C4)cc3F)c12 [Example 43, (S)-2-amino-1-((R)-3-(dimethylamino)pyrrolidin-1-yl)-3-(3-fluoro-4-((3-methyl-1H-pyrrolo[2,3-b]pyridin-4-yl)oxy)phenyl)propan-1-one] | < 3 nM | < 3 nM
